Assay results as given in publication PMC10638401, “Mannich-type modifications of (−)-cannabidiol and (−)-cannabigerol leading to new, bioactive derivatives” (Scientific Reports, 2023).
In brackets after ≈: the same amount, converted by molar mass.

Tests used:
[1] = system: A2780 cells; test: Antiproliferative MTT assay, 72 h; assay type: cell-based, human
In short: (§1)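 Cells seeded at 5000/well, grown overnight, then treated with 10 or 30 μM compound for 72 h. MTT added for 4 h, formazan dissolved in DMSO and read at 545 nm. Values are % proliferation inhibition versus untreated controls (0%), two experiments with five wells each.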

[2] = system: MCF7 cells; test: Antiproliferative MTT assay, 72 h; assay type: cell-based, human
In short: as §1

[3] = system: MDA-MB-231 cells; test: Antiproliferative MTT assay, 72 h; assay type: cell-based, human
In short: as §1

[4] = system: SiHa cells; test: Antiproliferative MTT assay, 72 h; assay type: cell-based, human
In short: as §1

[5] = system: SARS-CoV-2; test: SARS-CoV-2 cytopathic effect (CPE) inhibition assay in Vero E6 cells (XTT); assay type: cell-based; details: Severe acute respiratory syndrome coronavirus 2, Vero C1008, 72 h; Vero E6 cells, 3 days post-infection, XTT
[6] = system: SARS-CoV-2; test: SARS-CoV-2 immunofluorescence assay (nucleoprotein expression) in Vero E6 cells; assay type: cell-based; details: Severe acute respiratory syndrome coronavirus 2, Vero C1008, 72 h, three days
Experimental: CBD and CBG derivatives were further tested for their ability to inhibit SARS-CoV-2 replication in Vero E6 cells. Initially, the inhibition of virus-induced cytopathic effect was measured by addition of twofold serial dilutions of each derivative to the cells, followed by the infection with SARS-CoV-2 and determination of the cell viability 3 days post-infection by XTT assay. Concurrently, the cytotoxicity of each compound was assessed from identical dilutions in uninfected Vero E6 cells. To confirm anti-SARS-CoV-2 activity in the CPE inhibition assay, selected compounds were tested in immunofluorescence assay, where inhibition of SARS-CoV-2 replication was monitored as reduction in nucleoprotein expression using fluorescence microscope. […] Among the CBG derivatives, we can find quite cytotoxic and non-cytotoxic derivatives as well.
For CPE-based assay, two-fold fold serial dilutions of compounds from 100 µM were added in triplicate in a 384-well plate with 5000 Vero E6 cells in DMEM medium with 2% FBS, 100 U of penicillin/ml and 100 µg of streptomycin/ml (all Merck). After 1 h incubation SARS-CoV-2 (strain hCoV-19/Czech Republic/NRL_6632_2/2020) was added at multiplicity of infection […]. Following three days incubation at 37 °C in 5% CO2 the cell viability was determined by addition of XTT solution (Sigma-Aldrich) for 4 h and the absorbance was measured using EnVision plate reader (Perkin Elmer). Drug concentrations required to reduce viral cytopathic effect by 50% (EC50) were calculated using nonlinear regression from plots of percentage cell viability versus log10 drug concentration using GraphPad Prism (version 9.0.0, GraphPad Software, LLC). For immunofluorescence assay, two-fold fold serial dilutions of compounds from 100 µM were added in triplicate in 96-well plate with 15,000 Vero E6 cells plated day before in the same medium as above. After 1 h incubation, SARS-CoV-2 was added at multiplicity of infection 0.05 IU/cell. After three days of incubation, cells were fixed with 4% paraformaldehyde, permeabilized with 0.2% Triton X100 (both Merck), washed, incubated with anti-SARS-CoV-2antibody (mouse monoclonal antibody detecting SARS-CoV-2 nucleoprotein) for 2 h at room temperature. Followed by 1.5 h incubation with Cy3-labeled donkey anti-mouse IgG (Jackson ImmunoResearch Europe) and documented using fluorescence microscope with camera (Olympus). Images were processed in ImageJ software (NIH) and compound concentrations required to reduce fluorescence by 50% (EC50s) were calculated from plots of percentage of fluorescent cells versus log10 drug concentration using nonlinear regression analysis as above. Cytotoxicity was evaluated by incubating with the same two-fold serial dilutions of each compound as above with Vero E6 cells in 384-well plate.

[7] = in vitro; details: African green monkey
[8] = system: Bacillus subtilis; test: MIC, broth micro dilution
Experimental: (§2) According to CLSI guideline the Minimal Inhibitory Concentrations (MICs) of the prepared compounds were determined with the broth micro dilution method. After an overnight growth on 5% bovine blood agar plates at 35 °C bacterial strains were suspended in physiological saline in order to reach the density of 0.5 McFarland for inoculation. Stock solutions containing different concentrations of the substances were prepared in DMSO and H2O (1:1). These were twofold serially diluted from 256 to 0.5 mg/l in Mueller–Hinton broth, and 100 ml of each dilution was inoculated with 10 ml of each bacterial suspension.

[9] = system: MSSA (Methicillin Sensitive Staphylococcus aureus); test: MIC, broth micro dilution; details: Staphylococcus aureus
Experimental: as §2

[10] = system: MRSA (Methicillin Resistant Staphylococcus aureus); test: MIC, broth micro dilution; details: Staphylococcus aureus
Experimental: as §2

[11] = system: Staphylococcus epidermidis mecA; test: MIC, broth micro dilution; details: Staphylococcus epidermidis
Experimental: as §2

[12] = system: Enterococcus faecalis 15 376 VanA; test: MIC, broth micro dilution; details: Enterococcus faecalis, 15376VANA
Experimental: as §2

In the case of `C=C(C)[C@@H]1CCC(C)=C[C@H]1c1c(O)cc(CCCCC)cc1O` [Compound 1, (−)-Cannabidiol], the “inhibition of the proliferation (in words)” value (“inhibition … (in words)” below) ([1]; A2780, 10 μM) is reported as “modest”, the inhibition at 30 µM ([1]; Homo sapiens, A2780, 30 μM, read-out: inhibition of the proliferation) is reported as about 90% and the inhibition at 30 µM ([2]; Homo sapiens, MCF7, 30 μM, read-out: inhibition of the proliferation) is reported as about 90%. The “inhibition … (in words)” value ([2]; MCF7, 10 μM) was “modest”, the inhibition at 30 µM ([3]; Homo sapiens, MDA-MB-231, 30 μM, read-out: inhibition of the proliferation) was about 90% and the “inhibition … (in words)” value ([3]; MDA-MB-231, 10 μM) was “negligible”. The “inhibition … (in words)” value ([4]; 10 μM) was “negligible”, the inhibition at 30 µM ([4]; Homo sapiens, 30 μM, read-out: inhibition of the proliferation) was about 90% and the EC50 [5] was 5.1 ± 0.99 µM. The EC50 [6] was 8.3 ± 0.28 µM, the CC50 [7] was 12.1 ± 1.2 µM and the MIC [8] was 4 µg/mL (≈ 12.7 µM). The MIC [9] was 4 µg/mL (≈ 12.7 µM), the MIC [10] was 4 µg/mL (≈ 12.7 µM) and the MIC [11] was 8 µg/mL (≈ 25.4 µM). It also gave an MIC [12] of 4 µg/mL (≈ 12.7 µM).

With `C=C(C)[C@@H]1CCC(C)=C[C@H]1c1c(O)cc(CCCCC)c(COCC)c1O` [Compound 9] the “antiproliferative activity (in words)” value ([1]; A2780, 10 and 30 μM) was “None of the other tested CBD analogs (9, 11, and 12) exhibited substantial antiproliferative activity”, the “antiproliferative activity (in words)” value ([2]; MCF7, 10 and 30 μM) was “None of the other tested CBD analogs (9, 11, and 12) exhibited substantial antiproliferative activity” and the “antiproliferative activity (in words)” value ([3]; MDA-MB-231, 10 and 30 μM) was “None of the other tested CBD analogs (9, 11, and 12) exhibited substantial antiproliferative activity”. For the same molecule, the “antiproliferative activity (in words)” value ([4]; 10 and 30 μM) was “None of the other tested CBD analogs (9, 11, and 12) exhibited substantial antiproliferative activity”, the EC50 [5] was 22 ± 3 µM and the EC50 [6] was about 94 µM. For the same molecule, the CC50 [7] was over 100 µM, the MIC [8] was over 256 µg/mL and the MIC [9] was over 256 µg/mL. It also gave an MIC [10] of over 256 µg/mL, an MIC [11] of over 256 µg/mL and an MIC [12] of 128 µg/mL (≈ 344 µM).
